{"source": "patent US11505556B2", "about": "“Halogenated derivatives of morphinans and uses thereof” (Xalud Therapeutics, Inc., priority 2017, dated 2022)", "key": {"in vitro [1]": {"assay": "in vitro", "details": "human, cultured hepatocytes"}, "[2]": {"system": "EAE (multiple sclerosis model) pain", "assay": "Experimental Autoimmune Encephalomyelitis (EAE) model, mechanical allodynia", "assay_type": "in vivo, rat", "details": "both paws", "from_the_text": "The Experimental Autoimmune Encephalomyelitis (EAE) Model has been developed as a rat model of multiple sclerosis (Sloane, E. et al. Brain Behav. Immun. 2009, 23, 92-100). The model encompasses the injection of myelin oligodendrocyte glycoprotein (MOG) or similar glycoprotein to establish and antibody reaction that damages spinal nerve fibers leading to a progression of motor and sensory deficits. The rapid progression of deficits can be slowed by reduction of the MOG dose, enabling testing for pain responses prior to the development of hind limb paresis.\nReduced-dose MOG or saline (sham) was administered intradermally at the base of the tail. Mechanical allodynia pain testing was performed on hind left and right paws by application of Semmes-Weinstein (“von Frey”) monofilaments calibrated for different bending forces for 8 seconds to determine the paw-withdrawal threshold. On day 15 post EAE induction, after reduction in the paw-withdrawal threshold (establishment of mechanical allodynia pain), subcutaneous injection of 15 mg/kg XT-203 or saline was administered three times/day for 15 days. Behavioral data were analyzed with two-way ANOVA. For all tests, statistical significance was set to p<0.05 (*)."}, "[3]": {"assay": "Hepatocyte elimination of parent compound, spread across species", "assay_type": "in vitro ADME", "details": "mouse, rat, dog, monkey, human, hepatocytes; lowest to highest species value; read-out: range of hepatocyte elimination half-life values across species", "experimental": "Hepatocyte Elimination: (+)-NTX, AK-17 and XT-203 were incubated with cultured hepatocytes from the species listed in FIG. 9 and Table 4, and samples of the culture supernatant were collected over time. Samples were concentrated by nitrogen drying followed by reconstitution with 40% methanol for LC/MS analysis The data points were analyzed using the WinNonLin pharmacokinetics software package, and a half-life was determined that describes the rate of parent elimination. […].\nIn addition to the animal studies presented above in Examples 1-9, the results of in vitro testing of several of the compounds (i.e., XT-203, XT-204, and XT-206 through XT-217) are shown in Table 5 and Table 6. […]. Nine additional compounds had two or fewer off-target hits in the screening. […] These compounds spanned all of the tested N-modification classes. […]. Thus, the medicinal chemistry approach taken in this series of fluorinated compounds can yield low off-target activity and longer metabolic lifetime while preserving TLR4 antagonism. It is appreciated that further development of compounds in this class, using techniques known to those skilled in the art, may yield additional compounds with desirable pharmacologic and toxicologic characteristics."}, "hERG": {"target": "hERG (Homo sapiens, UniProt Q12809)", "sequence (Q12809 whole entry)": "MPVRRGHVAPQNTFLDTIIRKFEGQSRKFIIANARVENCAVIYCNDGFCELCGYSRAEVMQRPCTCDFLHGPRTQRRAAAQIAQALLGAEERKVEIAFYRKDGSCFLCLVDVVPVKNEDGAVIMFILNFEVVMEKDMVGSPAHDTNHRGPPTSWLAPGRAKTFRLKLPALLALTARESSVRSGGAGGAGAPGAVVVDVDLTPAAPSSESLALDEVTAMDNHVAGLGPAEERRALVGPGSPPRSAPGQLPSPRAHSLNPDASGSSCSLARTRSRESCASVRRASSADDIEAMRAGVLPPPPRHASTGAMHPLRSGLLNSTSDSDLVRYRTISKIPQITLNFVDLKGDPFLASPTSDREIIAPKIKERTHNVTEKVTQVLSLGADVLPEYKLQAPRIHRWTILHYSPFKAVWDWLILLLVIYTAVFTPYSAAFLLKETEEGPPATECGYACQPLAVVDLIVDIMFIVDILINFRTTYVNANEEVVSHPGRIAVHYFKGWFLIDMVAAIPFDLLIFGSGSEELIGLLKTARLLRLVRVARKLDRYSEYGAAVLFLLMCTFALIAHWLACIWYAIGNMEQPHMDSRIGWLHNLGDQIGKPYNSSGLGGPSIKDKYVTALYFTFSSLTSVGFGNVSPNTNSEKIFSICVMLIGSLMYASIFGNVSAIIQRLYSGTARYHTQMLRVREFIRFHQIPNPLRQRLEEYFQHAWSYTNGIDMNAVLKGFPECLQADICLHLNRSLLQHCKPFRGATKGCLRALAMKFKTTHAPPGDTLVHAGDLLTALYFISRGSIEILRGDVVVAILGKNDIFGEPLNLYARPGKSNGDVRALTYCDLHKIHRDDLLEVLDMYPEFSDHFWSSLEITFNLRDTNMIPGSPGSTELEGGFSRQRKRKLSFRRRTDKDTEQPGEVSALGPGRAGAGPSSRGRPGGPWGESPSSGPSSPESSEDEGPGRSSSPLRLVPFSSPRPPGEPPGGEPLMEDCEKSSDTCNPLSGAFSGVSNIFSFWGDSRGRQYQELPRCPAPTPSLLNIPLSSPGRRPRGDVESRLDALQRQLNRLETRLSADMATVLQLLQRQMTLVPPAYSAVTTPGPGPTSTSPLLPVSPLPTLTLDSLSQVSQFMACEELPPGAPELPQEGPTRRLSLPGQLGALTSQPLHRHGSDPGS", "assay": "hERG inhibition"}, "BV-2 cells": {"system": "BV-2 cells", "assay": "Cell viability of BV-2 cells", "assay_type": "cell-based, mouse", "details": "BV2 cells, FIGS. 7, 8B to 8D", "protocol": "Cell viability was also measured by a standard assay, e.g., measurement of the release of cytoplasm-resident enzymes in the tissue culture supernatant or media to detect cell loss/lysis/rupture."}, "Human hepatocytes": {"system": "Human hepatocytes", "assay": "Hepatocyte elimination of parent compound", "details": "hepatocytes"}, "in vitro [4]": {"assay": "in vitro", "details": "rat, cultured hepatocytes"}, "in vitro [5]": {"assay": "in vitro", "details": "monkey, cultured hepatocytes"}, "in vitro [6]": {"assay": "in vitro", "details": "dog, cultured hepatocytes"}, "Adrenergic α2A": {"target": "T1, Adrenergic α2A (Homo sapiens, UniProt P08913)", "T1 sequence (P08913 1-465)": "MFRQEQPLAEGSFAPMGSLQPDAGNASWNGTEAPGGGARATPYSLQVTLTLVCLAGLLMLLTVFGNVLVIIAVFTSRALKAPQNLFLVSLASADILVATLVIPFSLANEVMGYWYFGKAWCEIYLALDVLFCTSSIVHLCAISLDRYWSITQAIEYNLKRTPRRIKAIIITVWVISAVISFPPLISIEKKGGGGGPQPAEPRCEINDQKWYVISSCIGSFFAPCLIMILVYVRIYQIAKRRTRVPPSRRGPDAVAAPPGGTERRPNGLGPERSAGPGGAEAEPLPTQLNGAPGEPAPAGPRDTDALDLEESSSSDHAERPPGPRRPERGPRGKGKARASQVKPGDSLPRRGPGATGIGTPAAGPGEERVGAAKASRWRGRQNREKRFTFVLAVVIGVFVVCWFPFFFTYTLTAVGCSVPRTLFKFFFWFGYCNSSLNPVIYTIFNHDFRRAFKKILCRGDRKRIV", "assay": "Off-target screening", "assay_type": "binding"}, "in vitro [7]": {"assay": "in vitro", "details": "mouse, hepatocytes"}, "[8]": {"system": "acute nociceptive pain (paw incision)", "assay": "Rat paw incision model, subcutaneous (Study R049)", "details": "30 mg/kg SC TID, five days; morphine 3 mg/kg as positive control"}}}
{"smiles": "COc1ccc2c3c1O[C@@H]1C(F)CCC4[C@H](C2)N(CC2CC2)CC[C@]341", "note": "(stereo partly drawn) [XT-203]", "values": [{"measurement": "half-life", "setting": "in vitro [1]", "result": 54.3, "unit": "min"}, {"measurement": "pain responses in MOG-treated rats", "setting": "[2]; 15 mg/kg SC three times/day for 15 days from day 15 post EAE induction", "result": "did reverse pain responses"}, {"measurement": "pain response in sham non-MOG rats", "setting": "[2]; 15 mg/kg SC three times/day for 15 days", "result": "no effect"}, {"measurement": "half-life", "setting": "[3]", "result": "13.2 to 54.3", "unit": "min"}, {"measurement": "IC50", "setting": "hERG", "result": "> 100", "unit": "µM"}, {"measurement": "cell viability", "setting": "BV-2 cells", "result": "good viability"}, {"measurement": "half-life in human hepatocytes compared to (+)-NTX and AK-17", "setting": "Human hepatocytes", "result": "enhanced half-life"}, {"measurement": "half-life", "setting": "in vitro [4]", "result": 13.2, "unit": "min"}, {"measurement": "half-life", "setting": "in vitro [5]", "result": 13.7, "unit": "min"}, {"measurement": "half-life", "setting": "in vitro [6]", "result": 24.3, "unit": "min"}, {"measurement": "% Inhibition at 10 μM, Adrenergic α2A", "setting": "Adrenergic α2A", "result": 99, "unit": "%"}, {"measurement": "% Inhibition at 10 μM, Adrenergic α2A", "setting": "Adrenergic α2A; listed as XT 203, 10 µM", "result": 64, "unit": "%"}, {"measurement": "inhibition at 1 µM", "setting": "Adrenergic α2A; read-out: % inhibition at 1 μM (retest), Adrenergic α2A, 1 μM", "result": "< 50", "unit": "%"}, {"measurement": "half-life", "setting": "in vitro [7]", "result": "~27", "unit": "min"}, {"measurement": "efficacy in rat paw incision model at the high dose", "setting": "[8]", "result": "significant efficacy"}]}
